# Assay results from article PMC11096368, “Transcriptomic signature, bioactivity and safety of a non-hepatotoxic analgesic generating AM404 in the midbrain PAG region” (Scientific Reports, 2024).
# Values joined by “and” are separate entries in the source; they are usually repeats but may differ in a detail not shown here. Equal values may be shown once. Read-outs that look alike come from different tables or passages of the source.
# Test: Phase 1 single ascending dose (SAD) pharmacokinetics incl. food effect
# Format: in vivo, human
# Details: for Tmax (h) / Tmax: N 6; for AUC(0-t) / AUC(0-inf) / Cmax / half-life / Tmax: human, plasma; for AUC(0-t) / AUC(0-inf) / Cmax / half-life: oral; for Tmax: po
# Procedure: A randomized, double-blind, placebo-controlled Phase 1 trial (ClinicalTrials.gov identifier: NCT05484414) (02/08/2022) was conducted to assess the safety, tolerability, food effect, pharmacokinetics (PK), and pharmacodynamics (PD) of single and multiple ascending doses of SRP-001 (Quotient Sciences, Miami FL USA; Fig. 3h - k and Methods). The trial was conducted in accordance with the International Council for Harmonisation of Technical Requirements for Pharmaceuticals for Human Use (ICH), Guideline for GCP: Consolidated Guidance (E6), attained Institutional Review Board approval, and all applicable regulatory requirements for Phase 1, First in Human clinical trials. Safety measurements and plasma samples to determine PK parameters were collected throughout the study for all subjects and reviewed by the Safety Review Committee. PK stopping criteria were established to assure that systemic exposure to SRP-001 was less than or equal to the systemic exposure achieved at the NOAEL doses in the 28-day repeat-dose toxicology studies in the rat and dog. The trial’s Safety Advisory Committee has approved the publication of the Phase 1 results.
# SRP-001 was administered as an oral nanosuspension to 56 healthy volunteers across five Single Ascending Dose (SAD) and two Multiple Ascending Dose (MAD) cohorts, with 42 subjects receiving SRP-001 and 14 receiving a placebo.
# A two-part randomized, double-blind, placebo-controlled Phase 1 trial was conducted to assess the safety, tolerability, PK and PD of SRP-001 ascending doses (Quotient Sciences, Miami, FL, USA). The study was conducted in accordance with the International Council for Harmonisation of Technical Requirements for Pharmaceuticals for Human Use (ICH), Guideline for GCP: Consolidated Guidance (E6), and applicable regulatory requirements(s) including clinical research guidelines established by the Basic Principles defined in the U.S. 21 CFR Parts 50, 56, and 312 and the principles enunciated in the Declaration of Helsinki (revised version Fortaleza 2013). The clinical protocol and informed consent form were reviewed and approved by an Institutional Review Board (IRB; Advarra IRB, 6100 Merriweather Drive, Suite 600, Columbia, MD 21,044; Quotient Protocol No. SRP-101 and Quotient Sciences Study No. QSC205130; Quotient Sciences Miami, 3898 NW 7th Street, Miami, FL 33,126.). The study comprises a SAD (Part 1) assessment that includes a food effect assessment that contributes data to inform a subsequent MAD (Part 2) dose-ranging study. Safety measurements were collected throughout the study for all subjects. Blood samples were collected to determine the PK parameters of SRP-001 (ClinicalTrials.gov identifier: NCT05484414) (02/08/2022).
# NHVs were dosed in the fasted state. The calorie/fat content of meals was not required to be controlled. Subjects were provided with a standardized menu. Subjects were provided with a light snack and then fasted from all food and drink (except water) for a minimum of 10 h on the day prior to dosing until approximately 4 h post-dose, at which time lunch was provided. An evening meal was provided at approximately 10 h post-dose/post-morning dose and an evening snack at approximately 14 h post-morning dose. Food effect was studied in the cohort receiving 900 mg SRP-001 in the fed state. A standard high-fat breakfast was given 30 min before dosing. On Day -1, these NHVs were provided with a light snack and fasted from all food and drink (except water) until the following morning, when they were provided with a standard high-fat breakfast. The breakfast had to be consumed over a maximum period of 25 min, with dosing occurring 30 min after the start of breakfast. Subjects were encouraged to eat their meal evenly over the 25 min period. It was acknowledged that some subjects took less time to eat, but dosing still occurred 30 min after the start of breakfast. Subjects had to consume at least 90% to be eligible for dosing. […]
# [1] = 300 mg, Cohort 1, Regimen A, Fasted, geometric mean (geometric CV%)
# [2] = 600 mg, Cohort 2, Regimen B, Fasted, geometric mean (geometric CV%)
# [3] = 900 mg, Cohort 3, Regimen C, Fasted, geometric mean (geometric CV%)
# [4] = 900 mg, Cohort 3, Regimen D, Fed, geometric mean (geometric CV%)
# [5] = 2000 mg, Cohort 4, Regimen E, Fasted, geometric mean (geometric CV%)
# [6] = relative bioavailability, Cohort 4, Regimen E, text b207 under 900 mg fed state
compound,measurement,setting,value
"CCN(CC)C(=O)c1ccccc1S(=O)(=O)NCC(=O)Nc1ccc(O)cc1 [SRP-001, N,N-diethyl-2-[[2-(4-hydroxyanilino)-2-oxo-ethyl]sulfamoyl]benzamide]",Geometric mean AUC(0–24) as share of the exposure limits defined in the protocol,"2000 mg, fasted",31%
same,Geometric mean Cmax as share of the exposure limits defined in the protocol,"2000 mg, fasted",34%
same,Dose proportionality of geometric mean Cmax and AUC(0-∞),300 to 2000 mg,dose-proportional or super-proportional increase
same,T1/2 (h),"Cohort 1, Regimen A, 300 mg, Fasted, geometric mean (geometric CV%)",2.38 (65.9) h
same,Tmax (h),"Cohort 2, Regimen B, 600 mg oral suspension, Fasted",1 (1.00–2.00) h
same,T1/2 (h),"Cohort 2, Regimen B, 600 mg, Fasted, geometric mean (geometric CV%)",5.04 (107.8) h
same,Tmax (h),"Cohort 3, Period 2: Regimen D, 900 mg oral suspension, Fed",1 (1.00–8.00) h
same,T1/2 (h),"Cohort 3, Regimen C, 900 mg, Fasted, geometric mean (geometric CV%)",3.26 (62.1) h
same,T1/2 (h),"Cohort 3, Regimen D, 900 mg, Fed, geometric mean (geometric CV%)",3.79 (74.5) h
same,Tmax (h),"Cohort 4, Regimen E, 2000 mg oral suspension, Fasted",1 (1.00–2.00) h
same,T1/2 (h),"Cohort 4, Regimen E, 2000 mg, Fasted, geometric mean (geometric CV%)",5.96 (65.9) h
same,Increase of geometric mean AUC(0–24),dose from 300 to 600 mg,3.5 fold
same,Increase of geometric mean Cmax,dose from 300 to 600 mg,2.6 fold
same,Increase of geometric mean AUC(0–24),dose from 600 to 900 mg,1.2 fold
same,Increase of geometric mean Cmax,dose from 600 to 900 mg,1.6 fold
same,Increase of geometric mean Cmax,dose from 900 to 2000 mg (2.2-fold increase in dose),1.7 fold
same,AUC(0-t),"300 mg, Cohort 1, Regimen A, 300 mg, Fasted, geometric mean (geometric CV%), read-out: AUC0-24",1.62 µg·h/mL
same,AUC(0-t),"300 mg, Cohort 1, Regimen A, 300 mg, Fasted, geometric mean (geometric CV%), read-out: AUC0-last",1.32 µg·h/mL
same,AUC(0-inf),[1],1.63 µg·h/mL
same,Cmax,[1],0.665 µg/mL
same,half-life,[1],2.4 h
same,AUC(0-t),"300 mg, fasted, geometric mean, read-out: AUC(0–48)",1.63 µg·h/mL
same,AUC(0-t),"600 mg, Cohort 2, Regimen B, 600 mg, Fasted, geometric mean (geometric CV%), read-out: AUC0-24",5.66 µg·h/mL
same,AUC(0-t),"600 mg, Cohort 2, Regimen B, 600 mg, Fasted, geometric mean (geometric CV%), read-out: AUC0-last",4.94 µg·h/mL
same,AUC(0-inf),[2],5.84 µg·h/mL
same,Cmax,[2],1.74 µg/mL
same,half-life,[2],5 h
same,AUC(0-t),"900 mg, Cohort 3, Regimen C, 900 mg, Fasted, geometric mean (geometric CV%), read-out: AUC0-24",6.87 µg·h/mL
same,AUC(0-t),"900 mg, Cohort 3, Regimen C, 900 mg, Fasted, geometric mean (geometric CV%), read-out: AUC0-last",6.81 µg·h/mL
same,AUC(0-inf),[3],6.97 µg·h/mL
same,Cmax,[3],2.7 µg/mL
same,half-life,[3],3.3 h
same,AUC(0-t),"900 mg, Cohort 3, Regimen D, 900 mg, Fed, geometric mean (geometric CV%), read-out: AUC0-24",6.25 µg·h/mL
same,AUC(0-t),"900 mg, Cohort 3, Regimen D, 900 mg, Fed, geometric mean (geometric CV%), read-out: AUC0-last",6.13 µg·h/mL
same,AUC(0-inf),[4],5.91 µg·h/mL
same,Cmax,[4],1.2 µg/mL
same,half-life,[4],3.8 h
same,AUC(0-t),"2000 mg, Cohort 4, Regimen E, 2000 mg, Fasted, geometric mean (geometric CV%), read-out: AUC0-24",18.9 µg·h/mL
same,AUC(0-t),"2000 mg, Cohort 4, Regimen E, 2000 mg, Fasted, geometric mean (geometric CV%), read-out: AUC0-last",19.1 µg·h/mL
same,AUC(0-inf),[5],19.6 µg·h/mL
same,Cmax,[5],4.59 µg/mL
same,half-life,[5],6 h
same,Tmax,"300 mg, Cohort 1, Regimen A, 300 mg oral suspension, Fasted",1 h
same,Tmax,"600 mg, Cohort 2, Regimen B, 600 mg oral suspension, Fasted",1 to 2 h
same,Tmax,"900 mg, Cohort 3, Period 1: Regimen C, 900 mg oral suspension, Fasted",1 h
same,Tmax,"900 mg, Cohort 3, Period 2: Regimen D, 900 mg oral suspension, Fed",1 to 8 h
same,Tmax,"2000 mg, Cohort 4, Regimen E, 2000 mg oral suspension, Fasted",1 to 2 h
same,Frel AUC(0- last) (%),[6],98.4% and 98.4a (16.3) %
same,Frel AUC(0-inf) (%),[6],101% and 101a (20.3) %
same,Frel AUC(0–24) (%),[6],99.2% and 99.2a (19.0) %
same,Frel Cmax (%),[6],48.4% and 48.4a (21.9) %
